# Laboratory results reported in patent US20190136191A1, “Methods of Producing Specialized Cardio-Like Cells from Stem Cells” (Emory University, priority 2016, published 2019).
# B1: Noggin: secreted protein that binds and inactivates TGF-beta superfamily signaling proteins (protein, UniProt Q13253 28-232, looked up)
# Noggin: QHYLHIRPAPSDNLPLVDLIEHPDPIFDPKEKDLNETLLRSLLGGHYDPGFMATSPPEDRPGGGGGAAGGAEDLAELDQLLRQRPSGAMPSEIKGLEFSEGLAQGKKQRLSKKLRRKLQMWLWSQTFCPVLYAWNDLGSRFWPRYVKVGSCFSKRSCSVPEGMVCKPSKSVHLTVLRWRCQRRGGQRCGWIPIQYPIISECKCSC
# Legend:
# [1] = tested on: Human ESCs (H9); test: Mesoderm formation during cardiac differentiation of hESCs (brachyury (T)+ cells); format: cell-based
# Text: (§1) Human ESCs (H9) were differentiated to cardiac lineage by treatment with Activin A, BMP4 and bFGF (ABF, control group) for two days (day 1-2) Mesoderm formation was identified by brachyury (T)+ cells, and the ensuing pan-cardiac myocyte lineage was marked by cTnT+ cells. In control, this process was highly efficient, reaching 75% and 82%, respectively. […] In contrast, late (day 6-9) activation of RA (Late-RA) led to >90% cTnT+ population. […] Furthermore, the Late-RA cardiomyocytes expressed higher transcript and protein levels of the first heart field (FHF) markers, NKX2.5, TBX5 and HCN4.
# [2] = tested on: Human ESCs (H9); test: Pan-cardiac myocyte lineage formation from hESCs (cTnT+ cells); format: cell-based
# Text: as §1
# [3] = tested on: hESCs; test: Differentiation protocols of hESCs to cardio-like cell subtypes (AFB, AFB+RA, Ri+AFB+RA); format: cell-based, human
# Protocol: To create the cardio-like cells from hESCs, at the early stage (day 0-3), hESCs were treated with ActivinA, bFGF and BMP4 to induce mesoderm and cardiac mesoderm cells generation. […] Wnt inhibitor promoted cardiac progenitor cells into cardio-like cells during day 5-11.
# To create atrial-like cells from hESCs, at the early stage (day 0-3), hESCs were treated with ActivinA, bFGF and BMP4 to induce mesoderm and cardiac mesoderm cells generation. […] Wnt inhibitor promoted differentiation of cardiac progenitor cells into cardio-like cells during day 5-11.
# To create first heart field (FHF) derived left ventricular-like cells from hESCs, at the early stage (day 0-3), hESCs were treated with ActivinA, bFGF, BMP4 and additional short time (day 0-1) treatment of BMS4.93(Ri) to induce mesoderm and cardiac mesoderm cells generation. […] Wnt inhibitor promoted cardiac progenitor cells into cardiomyocytes during day 5-11.
# [4] = tested on: Human ESCs (H9); test: Chamber and heart field marker expression in hESC-derived cardiomyocytes; format: cell-based
# Text: IRX4 and HRT2 are ventricular marker. CoupTFII is an atrial marker. NKX2.5, TBX5, HCN4 are markers of the first heart field, which becomes the left ventricular and atrial cardiac myocytes.
# Is11, Mef2c, Fgf8, and Fgf10 are markers of the second heart field, which become right ventricular cardiac myocytes.
# as §1
# Reported are specific and robust derivation of the left ventricular-like cells by activating RA signaling during the late stage of hESC differentiation.
# [5] = early inhibition of RA signaling
# [6] = Late-RA cardiomyocytes compared to control
molecule,measurement,setting,value
"CC1(C)CC=C(C#Cc2ccccc2)c2cc(/C=C/c3ccc(C(=O)O)cc3)ccc21 [BMS-189493, (E)-4-(2-(5,5-dimethyl-8-(phenylethynyl)-5,6-dihydronaphthalen-2-yl)vinyl)benzoic acid]",Mesoderm induction,[1]; [5],increased mesoderm induction
same,Mesodermal cells that failed to become cardiac myocytes,[2]; [5],86%
"CC(C=CC1=C(C)CCCC1(C)C)=CC=CC(C)=CC(=O)O [RA, 3,7-dimethyl-9-(2,6,6-trimethylcyclohexen-1-yl)nona-2,4,6,8-tetraenoic acid]",Cell subtype specified,"[3]; AFB+RA protocol, RA during day 5-8, no early RA inhibitor",specified atria-like subtypes
same,Cell subtype specified,"[3]; Ri+AFB+RA protocol, RA during day 5-8 after Ri day 0-1",specified first heart field (FHF) derived left ventricular-like cell subtypes
same,Generation of mesoderm lineage,[1]; early activation of RA,failed to generate mesoderm lineage
same,cTnT+ population,[2]; late (day 6-9) activation of RA (Late-RA),> 90%
same,First heart field marker HCN4 transcript and protein levels,[4]; Late-RA cardiomyocytes,higher
same,First heart field marker NKX2.5 transcript and protein levels,[4]; Late-RA cardiomyocytes,higher
same,First heart field marker TBX5 transcript and protein levels,[4]; Late-RA cardiomyocytes,higher
same,Atrial marker CoupTFII expression,[4]; [6],down-regulated
same,Second heart field marker FGF8 expression,[4]; [6],downregulated
same,Second heart field marker FGF10 expression,[4]; [6],downregulated
same,Second heart field marker ISL1 expression,[4]; [6],downregulated
same,Ventricular marker HRT2 expression,[4]; [6],up-regulated
same,Ventricular marker IRX4 expression,[4]; [6],up-regulated
B1,Effect on cardiac lineage cells,[3]; Noggin treatment during day 3-5,expanded more cardiac lineage cells
